From ChEMBL document CHEMBL1153480, “Study on the potential anti-cancer activity of phosphonium and ammonium-based ionic liquids” (2009)

Assays:
Type in all cases: functional
SF-539 = experiment: cells; details: Homo sapiens
Description: Growth inhibition of human SF539 cells assessed as drug level required for 50% reduction in net protein increase by SRB assay relative to control

SNB-19 = experiment: cells; details: Homo sapiens
Description: Growth inhibition of human SNB19 cells assessed as drug level required for 50% reduction in net protein increase by SRB assay relative to control

U-251 = experiment: cells; details: Homo sapiens
Description: Growth inhibition of human U251 cells assessed as drug level required for 50% reduction in net protein increase by SRB assay relative to control

SK-MEL-2 [1] = experiment: cells; details: Homo sapiens
Description: Growth inhibition of human SK-MEL-2 cells assessed as drug level required for 50% reduction in net protein increase by SRB assay relative to control

SK-MEL-5 = experiment: cells; details: Homo sapiens
Description: Growth inhibition of human SK-MEL-5 cells assessed as drug level required for 50% reduction in net protein increase by SRB assay relative to control

UACC-62 [2] = experiment: cells; details: Homo sapiens
Description: Growth inhibition of human UACC62 cells assessed as drug level required for 50% reduction in net protein increase by SRB assay relative to control

OVCAR-5 = experiment: cells; details: Homo sapiens
Description: Growth inhibition of human OVCAR5 cells assessed as drug level required for 50% reduction in net protein increase by SRB assay relative to control

OVCAR-8 [3] = experiment: cells; details: Homo sapiens
Description: Growth inhibition of human OVCAR8 cells assessed as drug level required for 50% reduction in net protein increase by SRB assay relative to control

A498 = experiment: cells; details: Homo sapiens
Description: Growth inhibition of human A498 cells assessed as drug level required for 50% reduction in net protein increase by SRB assay relative to control

ACHN = experiment: cells; details: Homo sapiens
Description: Growth inhibition of human ACHN cells assessed as drug level required for 50% reduction in net protein increase by SRB assay relative to control

cells [4] = details: Homo sapiens, CAKI
Description: Growth inhibition of human CAKI cells assessed as drug level required for 50% reduction in net protein increase by SRB assay relative to control

TK-10 [5] = experiment: cells; details: Homo sapiens
Description: Growth inhibition of human TK10 cells assessed as drug level required for 50% reduction in net protein increase by SRB assay relative to control

NCI/ADR-RES [6] = experiment: cells; details: Homo sapiens
Description: Growth inhibition of human NCI/ADR-RES cells assessed as drug level required for 50% reduction in net protein increase by SRB assay relative to control

MDA-MB-231 = experiment: cells; details: Homo sapiens
Description: Growth inhibition of human MDA-MB-231 cells assessed as drug level required for 50% reduction in net protein increase by SRB assay relative to control

MDA-MB-435 = experiment: cells; details: Homo sapiens
Description: Growth inhibition of human MDA-MB-435 cells assessed as drug level required for 50% reduction in net protein increase by SRB assay relative to control

A549 = experiment: Cytotoxicity against human A549 cells by SRB assay; details: read-out: LC50 (the source's name)
HOP-62 [7] = experiment: Cytotoxicity against human HOP62 cells by SRB assay; details: read-out: LC50 (the source's name)
NCI-H23 [8] = experiment: Cytotoxicity against human NCI-H23 cells by SRB assay; details: read-out: LC50 (the source's name)
NCI-H522 [9] = experiment: Cytotoxicity against human NCI-H522 cells by SRB assay; details: read-out: LC50 (the source's name)
COLO 205 [10] = experiment: Cytotoxicity against human COLO205 cells by SRB assay; details: read-out: LC50 (the source's name)
SF-268 [11] = experiment: Cytotoxicity against human SF268 cells by SRB assay; details: read-out: LC50 (the source's name)
SF-295 [12] = experiment: Cytotoxicity against human SF295 cells by SRB assay; details: read-out: LC50 (the source's name)
Malme-3M [13] = experiment: Cytotoxicity against human MALME-3M cells by SRB assay; details: read-out: LC50 (the source's name)
M14 [14] = experiment: Cytotoxicity against human M14 cells by SRB assay; details: read-out: LC50 (the source's name)
OVCAR-3 [15] = experiment: Cytotoxicity against human OVCAR-3 cells by SRB assay; details: read-out: LC50 (the source's name)
OVCAR-4 = experiment: Cytotoxicity against human OVCAR4 cells by SRB assay; details: read-out: LC50 (the source's name)
SK-OV-3 = experiment: Cytotoxicity against human SKOV3 cells by SRB assay; details: read-out: LC50 (the source's name)
786-0 = experiment: cells; details: Homo sapiens, read-out: LC50 (the source's name)
Description: Cytotoxicity against human 786-0 cells by SRB assay

[16] = Cytotoxicity against human CAKI cells by SRB assay; details: read-out: LC50 (the source's name)
cells [17] = details: Homo sapiens, CAKI; remark: listed apart in the source
Description: Growth inhibition of human CAKI cells assessed as cell growth at 10 uM by SRB assay

TK-10 [18] = experiment: cells; details: Homo sapiens; remark: listed apart in the source
Description: Growth inhibition of human TK10 cells assessed as cell growth at 10 uM by SRB assay

MCF7 [19] = experiment: cells; details: Homo sapiens
Description: Growth inhibition of human MCF7 cells assessed as cell growth at 10 uM by SRB assay

NCI/ADR-RES [20] = experiment: cells; details: Homo sapiens; remark: listed apart in the source
Description: Growth inhibition of human NCI/ADR-RES cells assessed as cell growth at 10 uM by SRB assay

cells [21] = details: Homo sapiens, Hs-578T
Description: Growth inhibition of human Hs 578T cells assessed as cell growth at 10 uM by SRB assay

KM12 = experiment: cells; details: Homo sapiens
Description: Growth inhibition of human KM12 cells assessed as drug level required for 50% reduction in net protein increase by SRB assay relative to control

HCT-15 = experiment: cells; details: Homo sapiens
Description: Growth inhibition of human HCT15 cells assessed as drug level required for 50% reduction in net protein increase by SRB assay relative to control

HCT-116 [22] = experiment: cells; details: Homo sapiens
Description: Growth inhibition of human HCT116 cells assessed as drug level required for 50% reduction in net protein increase by SRB assay relative to control

COLO 205 [23] = experiment: cells; details: Homo sapiens
Description: Growth inhibition of human COLO205 cells assessed as drug level required for 50% reduction in net protein increase by SRB assay relative to control

NCI-H522 [24] = experiment: cells; details: Homo sapiens
Description: Growth inhibition of human NCI-H522 cells assessed as drug level required for 50% reduction in net protein increase by SRB assay relative to control

NCI-H322M = experiment: cells; details: Homo sapiens
Description: Growth inhibition of human NCI-H322M cells assessed as drug level required for 50% reduction in net protein increase by SRB assay relative to control

PC-3 = experiment: Cytotoxicity against human PC3 cells by SRB assay; details: read-out: LC50 (the source's name)
DU-145 = experiment: Cytotoxicity against human DU145 cells by SRB assay; details: read-out: LC50 (the source's name)
MCF7 [25] = experiment: Cytotoxicity against human MCF7 cells by SRB assay; details: read-out: LC50 (the source's name)
cells [26] = details: Homo sapiens, Hs-578T; read-out: LC50 (the source's name)
Description: Cytotoxicity against human Hs 578T cells by SRB assay

T47D = experiment: Cytotoxicity against human T47D cells by SRB assay; details: read-out: LC50 (the source's name)
MDA-MB-468 [27] = experiment: Cytotoxicity against human MDA-MB-468 cells by SRB assay; details: read-out: LC50 (the source's name)
HL-60(TB) = experiment: cells; details: Homo sapiens
Description: Growth inhibition of human HL-60(TB) cells assessed as cell growth at 10 uM by SRB assay

MOLT-4 [28] = experiment: cells; details: Homo sapiens
Description: Growth inhibition of human MOLT4 cells assessed as cell growth at 10 uM by SRB assay

HOP-92 = experiment: cells; details: Homo sapiens
Description: Growth inhibition of human HOP92 cells assessed as cell growth at 10 uM by SRB assay

NCI-H226 = experiment: cells; details: Homo sapiens
Description: Growth inhibition of human NCI-H226 cells assessed as cell growth at 10 uM by SRB assay

NCI-H23 [29] = experiment: cells; details: Homo sapiens
Description: Growth inhibition of human NCI-H23 cells assessed as cell growth at 10 uM by SRB assay

NCI-H460 = experiment: cells; details: Homo sapiens
Description: Growth inhibition of human NCI-H460 cells assessed as cell growth at 10 uM by SRB assay

NCI-H522 [30] = experiment: cells; details: Homo sapiens; remark: listed apart in the source
Description: Growth inhibition of human NCI-H522 cells assessed as cell growth at 10 uM by SRB assay

HCT-116 [31] = experiment: cells; details: Homo sapiens; remark: listed apart in the source
Description: Growth inhibition of human HCT116 cells assessed as cell growth at 10 uM by SRB assay

SW-620 [32] = experiment: cells; details: Homo sapiens
Description: Growth inhibition of human SW620 cells assessed as cell growth at 10 uM by SRB assay

SF-268 [33] = experiment: cells; details: Homo sapiens
Description: Growth inhibition of human SF268 cells assessed as cell growth at 10 uM by SRB assay

SF-295 [34] = experiment: cells; details: Homo sapiens
Description: Growth inhibition of human SF295 cells assessed as cell growth at 10 uM by SRB assay

HOP-62 [35] = experiment: cells; details: Homo sapiens
Description: Growth inhibition of human HOP62 cells assessed as drug level required for 50% reduction in net protein increase by SRB assay relative to control

SR = experiment: cells; details: Homo sapiens
Description: Growth inhibition of human SR cells assessed as drug level required for 50% reduction in net protein increase by SRB assay relative to control

RPMI-8226 = experiment: cells; details: Homo sapiens
Description: Growth inhibition of human RPMI8226 cells assessed as drug level required for 50% reduction in net protein increase by SRB assay relative to control

MOLT-4 [36] = experiment: cells; details: Homo sapiens; remark: listed apart in the source
Description: Growth inhibition of human MOLT4 cells assessed as drug level required for 50% reduction in net protein increase by SRB assay relative to control

CCRF-CEM = experiment: cells; details: Homo sapiens
Description: Growth inhibition of human CCRF-CEM cells assessed as drug level required for 50% reduction in net protein increase by SRB assay relative to control

SW-620 [37] = experiment: cells; details: Homo sapiens; remark: listed apart in the source
Description: Growth inhibition of human SW620 cells assessed as drug level required for 50% reduction in net protein increase by SRB assay relative to control

MDA-MB-468 [38] = experiment: cells; details: Homo sapiens
Description: Growth inhibition of human MDA-MB-468 cells assessed as cell growth at 10 uM by SRB assay

Malme-3M [39] = experiment: cells; details: Homo sapiens
Description: Growth inhibition of human MALME-3M cells assessed as cell growth at 10 uM by SRB assay

M14 [40] = experiment: cells; details: Homo sapiens
Description: Growth inhibition of human M14 cells assessed as cell growth at 10 uM by SRB assay

SK-MEL-2 [41] = experiment: cells; details: Homo sapiens; remark: listed apart in the source
Description: Growth inhibition of human SK-MEL-2 cells assessed as cell growth at 10 uM by SRB assay

SK-MEL-28 = experiment: cells; details: Homo sapiens
Description: Growth inhibition of human SK-MEL-28 cells assessed as cell growth at 10 uM by SRB assay

UACC-62 [42] = experiment: cells; details: Homo sapiens; remark: listed apart in the source
Description: Growth inhibition of human UACC62 cells assessed as cell growth at 10 uM by SRB assay

OVCAR-3 [43] = experiment: cells; details: Homo sapiens
Description: Growth inhibition of human OVCAR-3 cells assessed as cell growth at 10 uM by SRB assay

OVCAR-8 [44] = experiment: cells; details: Homo sapiens; remark: listed apart in the source
Description: Growth inhibition of human OVCAR8 cells assessed as cell growth at 10 uM by SRB assay

## CCCCCCCCCCCCCCCCCCPCCCCCCCCCCCCCC (configuration not stated) [MONO(OCTADECYL(TETRADECYL)PHOSPHONIUM) MONO(HEXAFLUOROPHOSPHATE(V)) MONO(TETRAFLUOROBORATE)]
SF-539
  GI50: 234 nM
SNB-19
  GI50: 97 nM
U-251
  GI50: 37 nM
SK-MEL-2 [1]
  GI50: 81 nM
SK-MEL-5
  GI50: 74 nM
UACC-62 [2]
  GI50: 61 nM
OVCAR-5
  GI50: 337 nM
OVCAR-8 [3]
  GI50: 229 nM
A498
  GI50: 472 nM
ACHN
  GI50: 244 nM
Cells [4]
  GI50: 350 nM
TK-10 [5]
  GI50: 234 nM
NCI/ADR-RES [6]
  GI50: 947 nM
MDA-MB-231
  GI50: 107 nM
MDA-MB-435
  GI50: 50 nM
A549
  CC50: > 100000 nM
HOP-62 [7]
  CC50: > 100000 nM
NCI-H23 [8]
  CC50: > 100000 nM
NCI-H522 [9]
  CC50: > 100000 nM
COLO 205 [10]
  CC50: > 100000 nM
SF-268 [11]
  CC50: > 100000 nM
SF-295 [12]
  CC50: > 100000 nM
Malme-3M [13]
  CC50: > 100000 nM
M14 [14]
  CC50: > 100000 nM
OVCAR-3 [15]
  CC50: > 100000 nM
OVCAR-4
  CC50: > 100000 nM
SK-OV-3
  CC50: > 100000 nM
786-0
  CC50: > 100000 nM
[16]
  CC50: > 100000 nM
Cells [17]
  growth at 10 µM: -70.2%
TK-10 [18]
  growth at 10 µM: -75%
MCF7 [19]
  growth at 10 µM: -40.8%
NCI/ADR-RES [20]
  growth at 10 µM: -77.3%
Cells [21]
  growth at 10 µM: -44.2%
KM12
  GI50: 59 nM
HCT-15
  GI50: 339 nM
HCT-116 [22]
  GI50: 84 nM
COLO 205 [23]
  GI50: 243 nM
NCI-H522 [24]
  GI50: 158 nM
NCI-H322M
  GI50: 401 nM
PC-3
  CC50: > 100000 nM
DU-145
  CC50: > 100000 nM
MCF7 [25]
  CC50: > 100000 nM
Cells [26]
  CC50: > 100000 nM
T47D
  CC50: > 100000 nM
MDA-MB-468 [27]
  CC50: > 100000 nM
HL-60(TB)
  growth at 10 µM: 24.9%
MOLT-4 [28]
  growth at 10 µM: 7.02%
HOP-92
  growth at 10 µM: -55.5%
NCI-H226
  growth at 10 µM: -68.1%
NCI-H23 [29]
  growth at 10 µM: -61%
NCI-H460
  growth at 10 µM: -41.9%
NCI-H522 [30]
  growth at 10 µM: -50.9%
HCT-116 [31]
  growth at 10 µM: -13.1%
SW-620 [32]
  growth at 10 µM: -43.8%
SF-268 [33]
  growth at 10 µM: -49%
SF-295 [34]
  growth at 10 µM: -50%
HOP-62 [35]
  GI50: 399 nM
SR
  GI50: 107 nM
RPMI-8226
  GI50: 16 nM
MOLT-4 [36]
  GI50: 90 nM
CCRF-CEM
  GI50: 34 nM
SW-620 [37]
  GI50: 72 nM
MDA-MB-468 [38]
  growth at 10 µM: -62%
Malme-3M [39]
  growth at 10 µM: -61.6%
M14 [40]
  growth at 10 µM: -67.2%
SK-MEL-2 [41]
  growth at 10 µM: -64.7%
SK-MEL-28
  growth at 10 µM: -69.3%
UACC-62 [42]
  growth at 10 µM: -77.4%
OVCAR-3 [43]
  growth at 10 µM: -51%
OVCAR-8 [44]
  growth at 10 µM: -18.1%

## CCCCCCCCCCCCCCCCCCPCCCCCCCCCCCCCC.O=S(=O)(NS(=O)(=O)C(F)(F)F)C(F)(F)F (configuration not stated)
SF-539
  GI50: 174 nM
SNB-19
  GI50: 69 nM
U-251
  GI50: 41 nM
SK-MEL-2 [1]
  GI50: 27 nM
SK-MEL-5
  GI50: 79 nM
UACC-62 [2]
  GI50: 45 nM
OVCAR-5
  GI50: 318 nM
OVCAR-8 [3]
  GI50: 86 nM
A498
  GI50: 310 nM
ACHN
  GI50: 260 nM
Cells [4]
  GI50: 236 nM
TK-10 [5]
  GI50: 341 nM
NCI/ADR-RES [6]
  GI50: 730 nM
MDA-MB-231
  GI50: 56 nM
MDA-MB-435
  GI50: 45 nM
A549
  CC50: > 100000 nM
HOP-62 [7]
  CC50: > 100000 nM
NCI-H23 [8]
  CC50: > 100000 nM
NCI-H522 [9]
  CC50: > 100000 nM
COLO 205 [10]
  CC50: > 100000 nM
SF-268 [11]
  CC50: > 100000 nM
SF-295 [12]
  CC50: > 100000 nM
Malme-3M [13]
  CC50: 5380 nM
M14 [14]
  CC50: > 100000 nM
OVCAR-3 [15]
  CC50: 6760 nM
OVCAR-4
  CC50: > 100000 nM
SK-OV-3
  CC50: > 100000 nM
786-0
  CC50: > 100000 nM
[16]
  CC50: > 100000 nM
Cells [17]
  growth at 10 µM: 4.01%
TK-10 [18]
  growth at 10 µM: -43.3%
MCF7 [19]
  growth at 10 µM: -51.8%
NCI/ADR-RES [20]
  growth at 10 µM: -10.5%
Cells [21]
  growth at 10 µM: -35.8%
KM12
  GI50: 49 nM
HCT-15
  GI50: 291 nM
HCT-116 [22]
  GI50: 61 nM
COLO 205 [23]
  GI50: 182 nM
NCI-H522 [24]
  GI50: 105 nM
NCI-H322M
  GI50: 321 nM
PC-3
  CC50: 5900 nM
DU-145
  CC50: > 100000 nM
MCF7 [25]
  CC50: > 100000 nM
Cells [26]
  CC50: > 100000 nM
T47D
  CC50: > 100000 nM
MDA-MB-468 [27]
  CC50: 2560 nM
HL-60(TB)
  growth at 10 µM: 43.1%
MOLT-4 [28]
  growth at 10 µM: 51.6%
HOP-92
  growth at 10 µM: -67.1%
NCI-H226
  growth at 10 µM: -1.45%
NCI-H23 [29]
  growth at 10 µM: -39.3%
NCI-H460
  growth at 10 µM: -59.4%
NCI-H522 [30]
  growth at 10 µM: -71.4%
HCT-116 [31]
  growth at 10 µM: -70.8%
SW-620 [32]
  growth at 10 µM: -86.3%
SF-268 [33]
  growth at 10 µM: -4.6%
SF-295 [34]
  growth at 10 µM: -68.4%
HOP-62 [35]
  GI50: 435 nM
SR
  GI50: 72 nM
RPMI-8226
  GI50: 16 nM
MOLT-4 [36]
  GI50: 69 nM
CCRF-CEM
  GI50: 26 nM
SW-620 [37]
  GI50: 49 nM
MDA-MB-468 [38]
  growth at 10 µM: -88.3%
Malme-3M [39]
  growth at 10 µM: -36.5%
M14 [40]
  growth at 10 µM: -83.9%
SK-MEL-2 [41]
  growth at 10 µM: -3.57%
SK-MEL-28
  growth at 10 µM: -97.8%
UACC-62 [42]
  growth at 10 µM: -28.1%
OVCAR-3 [43]
  growth at 10 µM: -100%
OVCAR-8 [44]
  growth at 10 µM: -79.9%
